Values joined by “and” are separate entries in the source; they are usually repeats but may differ in a detail not shown here. Equal entries are not always repeated. Inconclusive results and toxic doses are left out. Cut-off read from the data, not from the text of the source: active = T/C of 150% or more; inactive = T/C below 125%. Square brackets hold non-standard residues; d marks the D form. Peptide text beside a SMILES is read from it. ξ: configuration not given here. ξN = NC(=O)CC(N)C(=O)O
System: L1210 leukemia ip in BDF1 mice, survival T/C
Test: NCI In Vivo Anticancer Drug Screen. Data for tumor model L1210 Leukemia (intraperitoneal) in B6D2F1 (BDF1) mice
Details: endpoint: mean survival time, higher = longer survival
Summary of the method: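 In this screen, tumor-bearing mice given compound are compared to those given vehicle, and their survival values are reported as a treated-to-control quotient.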

[1] = dose: 100.0 mg/kg/injection, schedule: Q01DX009 (ip), vehicle: Klucel (hydroxypropylcellulose) (HPC)
[2] = dose: 100.0 mg/kg/injection, schedule: Q04DX003 (ip), vehicle: Klucel (hydroxypropylcellulose) (HPC)
[3] = dose: 200.0 mg/kg/injection, schedule: Q01DX009 (ip), vehicle: Klucel (hydroxypropylcellulose) (HPC)
[4] = dose: 200.0 mg/kg/injection, schedule: Q04DX003 (ip), vehicle: Klucel (hydroxypropylcellulose) (HPC)
[5] = dose: 400.0 mg/kg/injection, schedule: Q01DX009 (ip), vehicle: Klucel (hydroxypropylcellulose) (HPC)
[6] = dose: 400.0 mg/kg/injection, schedule: Q04DX003 (ip), vehicle: Klucel (hydroxypropylcellulose) (HPC)
[7] = dose: 200.0 mg/kg/injection, schedule: Q04DX003 (ip), vehicle: saline with Tween-80
[8] = dose: 400.0 mg/kg/injection, schedule: Q04DX003 (ip), vehicle: saline with Tween-80
[9] = dose: 37.5 mg/kg/injection, schedule: Q04DX003 (ip), vehicle: saline
[10] = dose: 75.0 mg/kg/injection, schedule: Q04DX003 (ip), vehicle: saline
[11] = dose: 100.0 mg/kg/injection, schedule: Q04DX002 (ip), vehicle: Klucel (hydroxypropylcellulose) (HPC)
[12] = dose: 200.0 mg/kg/injection, schedule: Q04DX002 (ip), vehicle: Klucel (hydroxypropylcellulose) (HPC)
[13] = dose: 400.0 mg/kg/injection, schedule: Q04DX002 (ip), vehicle: Klucel (hydroxypropylcellulose) (HPC)
[14] = dose: 25.0 mg/kg/injection, schedule: Q01DX009 (ip), vehicle: Klucel (hydroxypropylcellulose) (HPC)
[15] = dose: 50.0 mg/kg/injection, schedule: Q01DX009 (ip), vehicle: Klucel (hydroxypropylcellulose) (HPC)
[16] = dose: 100.0 mg/kg/injection, schedule: Q04DX003 (ip), vehicle: saline with Tween-80
[17] = dose: 100.0 mg/kg/injection, schedule: Q01DX009 (ip), vehicle: saline
[18] = dose: 200.0 mg/kg/injection, schedule: Q01DX009 (ip), vehicle: saline
[19] = dose: 400.0 mg/kg/injection, schedule: Q01DX009 (ip), vehicle: saline
[20] = dose: 100.0 mg/kg/injection, schedule: Q04DX003 (ip), vehicle: saline
[21] = dose: 200.0 mg/kg/injection, schedule: Q04DX003 (ip), vehicle: saline
[22] = dose: 400.0 mg/kg/injection, schedule: Q04DX003 (ip), vehicle: saline

Measured: T/C

COc1c(NC(=O)CC(C)=O)cccc1NC(=O)CC(C)=O
inactive: [1] 108 % of control | [2] 100 % of control | [3] 111 % of control | [4] 103 % of control | [5] 97 % of control | [6] 94 % of control

Cc1cc([N+](=O)[O-])cc(Br)c1N
inactive: [7] 93 % of control | [8] 91 % of control

Cc1cc(Cl)c2ccccc2n1
inactive: [9] 103 % of control | dose: 75.0 mg/kg/injection, schedule: Q01DX001 (ip), vehicle: other 108 % of control | [10] 95 % of control

COc1ccc(OCC(=O)N2CCCC2)cc1
inactive: [11] 103 % of control | [12] 96 % of control | [13] 96 % of control

CSc1cccc(NC2=NCCO2)c1
inactive: dose: 50.0 mg/kg/injection, schedule: Q04DX002 (ip), vehicle: saline with Tween-80 103 % of control | dose: 100.0 mg/kg/injection, schedule: Q04DX002 (ip), vehicle: saline with Tween-80 98 % of control | dose: 200.0 mg/kg/injection, schedule: Q04DX002 (ip), vehicle: saline with Tween-80 88 % of control | dose: 400.0 mg/kg/injection, schedule: Q04DX002 (ip), vehicle: saline with Tween-80 95 % of control

O=C(Nc1nccs1)Nc1cccc(Cl)c1Cl
inactive: [14] 106 % of control | [15] 101 % of control

Cc1c(Cl)c(C)c(Cl)c(O)c1Cl
inactive: [16] 97 % of control | [7] 96 % of control | [8] 97 % of control

O=C(O)Cc1c(O)ccc2ccccc12
inactive: dose: 100.0 mg/kg/injection, schedule: Q01DX009 (ip), vehicle: gum acacia 92 % of control | dose: 100.0 mg/kg/injection, schedule: Q04DX003 (ip), vehicle: gum acacia 97 % of control | dose: 200.0 mg/kg/injection, schedule: Q01DX009 (ip), vehicle: gum acacia 90 % of control | dose: 200.0 mg/kg/injection, schedule: Q04DX003 (ip), vehicle: gum acacia 92 % of control | dose: 400.0 mg/kg/injection, schedule: Q01DX009 (ip), vehicle: gum acacia 98 % of control | dose: 400.0 mg/kg/injection, schedule: Q04DX003 (ip), vehicle: gum acacia 90 % of control

Nc1ccccc1Sc1ccc(Br)cc1[N+](=O)[O-]
inactive: [9] 98 % of control | [10] 102 % of control | dose: 150.0 mg/kg/injection, schedule: Q04DX003 (ip), vehicle: saline 93 % of control

CC(=O)c1ccc(N)cc1
inactive: dose: 100.0 mg/kg/injection, schedule: Q01DX009 (ip), vehicle: other 94 % of control | dose: 100.0 mg/kg/injection, schedule: Q04DX002 (ip), vehicle: other 100 % of control | dose: 200.0 mg/kg/injection, schedule: Q01DX009 (ip), vehicle: other 102 % of control | dose: 200.0 mg/kg/injection, schedule: Q04DX002 (ip), vehicle: other 117 % of control | dose: 400.0 mg/kg/injection, schedule: Q04DX002 (ip), vehicle: other 114 % of control

NC(=O)Nc1cccc2c1-c1ccccc1C2=O
inactive: dose: 100.0 mg/kg/injection, schedule: Q04DX003 (ip), vehicle: acetone 88 % of control | dose: 400.0 mg/kg/injection, schedule: Q04DX003 (ip), vehicle: acetone 100 % of control

COCCOCCOC(=O)C(CO)(CC(CO)(C(C)=O)C(=O)OCCOCCOC)C(C)=O (stereo not given)
inactive: dose: 222.0 mg/kg/injection, schedule: Q01DX Z (ip), vehicle: saline 92 % of control | dose: 333.0 mg/kg/injection, schedule: Q01DX Z (ip), vehicle: saline 102 % of control | dose: 500.0 mg/kg/injection, schedule: Q01DX Z (ip), vehicle: saline 107 % of control

NCC(=O)NC(CC(N)=O)C(=O)O (stereo not given) (H-Gly-[ξN]-OH)
inactive: [17] 97 % of control | [18] 102 % of control | [19] 97 % of control

CC(=O)OC1CC2(O)C(CCC3(C)C(c4ccc(=O)oc4)CCC32O)C2(C)C1=CC(O)C1OC12 (stereo not given)
inactive: dose: 0.06 mg/kg/injection, schedule: Q01DX001 (sc), vehicle: steriod suspending solution 105 % of control | dose: 0.13 mg/kg/injection, schedule: Q01DX001 (sc), vehicle: steriod suspending solution 103 % of control | dose: 0.25 mg/kg/injection, schedule: Q01DX001 (sc), vehicle: steriod suspending solution 105 % of control | dose: 0.5 mg/kg/injection, schedule: Q01DX001 (sc), vehicle: steriod suspending solution 100 % of control and 102 % of control | dose: 1.0 mg/kg/injection, schedule: Q01DX001 (sc), vehicle: steriod suspending solution 96 % of control | dose: 2.0 mg/kg/injection, schedule: Q01DX001 (sc), vehicle: steriod suspending solution 104 % of control

CCCCCCCCCCCCCCCCC(Oc1ccc(Cl)cc1Cl)C(=O)O (stereo not given)
inactive: [2] 102 % of control | [4] 98 % of control | [6] 101 % of control

O=C(O)c1cc([N+](=O)[O-])ccc1Nc1cccc2ccccc12
inactive: [20] 90 % of control | [21] 97 % of control

Nc1cccc2cc3ccccc3[n+]([O-])c12
inactive: dose: 100.0 mg/kg/injection, schedule: Q01DX009 (ip), vehicle: saline with Tween-80 103 % of control | dose: 200.0 mg/kg/injection, schedule: Q01DX009 (ip), vehicle: saline with Tween-80 103 % of control | dose: 400.0 mg/kg/injection, schedule: Q01DX009 (ip), vehicle: saline with Tween-80 93 % of control

O=C(O)CN(CC(=O)O)c1ccc(/C=C/c2ccc(N(CC(=O)O)CC(=O)O)c(S(=O)(=O)O)c2)cc1S(=O)(=O)O
inactive: [17] 100 % of control | [20] 112 % of control | [18] 105 % of control | [21] 100 % of control | [19] 103 % of control | [22] 100 % of control

CN(C)Cc1cccc(-c2ccccc2)c1O
inactive: [17] 107 % of control | [2] 95 % of control | [20] 100 % of control | [18] 107 % of control | [4] 98 % of control | [21] 100 % of control | [19] 103 % of control | [6] 98 % of control | [22] 100 % of control

O=C(/C=C/c1ccc([N+](=O)[O-])o1)c1cccc([N+](=O)[O-])c1
inactive: [14] 100 % of control | [15] 103 % of control

CCCNC(=O)Oc1cccc(NC(=O)OC)c1
inactive: [16] 93 % of control | [7] 97 % of control | [8] 103 % of control

COc1ccc(C=O)c(O)c1
inactive: [1] 92 % of control | [2] 97 % of control | [3] 103 % of control | [4] 101 % of control | [5] 95 % of control | [6] 105 % of control

O=C(/C=C/c1ccccc1)c1ccc([N+](=O)[O-])cc1
inactive: [11] 94 % of control | [12] 94 % of control | [13] 108 % of control

CNCCN(C)Cc1ccccc1
inactive: dose: 25.0 mg/kg/injection, schedule: Q01DX009 (ip), vehicle: saline 101 % of control | dose: 25.0 mg/kg/injection, schedule: Q04DX003 (ip), vehicle: saline 106 % of control | dose: 50.0 mg/kg/injection, schedule: Q01DX009 (ip), vehicle: saline 97 % of control | dose: 50.0 mg/kg/injection, schedule: Q04DX003 (ip), vehicle: saline 98 % of control | [17] 98 % of control | [20] 98 % of control and 91 % of control

O=C1CC2C(=O)C1C(C(=O)O)C2C(=O)O (stereo not given)
inactive: dose: 75.0 mg/kg/injection, schedule: Q01DX001 (ip), vehicle: saline 112 % of control | dose: 150.0 mg/kg/injection, schedule: Q01DX001 (ip), vehicle: saline 102 % of control | dose: 300.0 mg/kg/injection, schedule: Q01DX001 (ip), vehicle: saline 95 % of control

O=C(O)C1C(C2c3ccc(O)cc3Oc3cc(O)ccc32)C2(Cl)C(Cl)=C(Cl)C1(Cl)C2(Cl)Cl (stereo not given)
inactive: [20] 100 % of control | [21] 93 % of control | [22] 94 % of control
